# Experimental data as given in article PMC4663078 (Bioorganic & medicinal chemistry letters, 2015).
# Where two headings read alike, the source gives them in different places.
# Columns and labels:
# [1] = molecular target: S. aureus DNA gyrase (Staphylococcus aureus, UniProt P0A0K8+P20831); assay: DNA gyrase supercoiling inhibition; type: biochemical
# [2] = test system: PBMC isolated from healthy volunteers; assay: cytotoxicity in peripheral blood mononuclear cells; type: cell-based, human; conditions: N=3
# [3] = test system: Klebsiella pneumoniae; conditions: cited from earlier work
# [4] = test system: CIMRSA 1; assay: microdilution susceptibility test; type: cell-based, Staphylococcus aureus; conditions: N=3
# [5] = test system: Vero cells; assay: CTG Luminescent Cell Viability Assay; type: cell-based, monkey; conditions: N=3
# [6] = test system: Staphylococcus saprophyticus; conditions: cited from earlier work
# [7] = test system: CIMRSA 6; assay: microdilution susceptibility test; type: cell-based, Staphylococcus aureus; conditions: N=3
# [8] = test system: clinical isolates of MRSA; conditions: cited from earlier work
# [9] = test system: CIMRSA 7; assay: microdilution susceptibility test; type: cell-based, Staphylococcus aureus; conditions: N=3
# [10] = test system: CIMRSA 4; assay: microdilution susceptibility test; type: cell-based, Staphylococcus aureus; conditions: N=3
# [11] = test system: E. coli (ATCC 25922); assay: microdilution susceptibility test; type: cell-based, Escherichia coli; conditions: N=3
# [12] = test system: MRSA (ATCC 43300); assay: microdilution susceptibility test; type: cell-based, Staphylococcus aureus; conditions: N=3
# [13] = test system: CIMRSA 3; assay: microdilution susceptibility test; type: cell-based, Staphylococcus aureus; conditions: N=3
# [14] = test system: MRSA (ATCC 43300); conditions: cited from earlier work
# [15] = test system: CIMRSA 5; assay: microdilution susceptibility test; type: cell-based, Staphylococcus aureus; conditions: N=3
# [16] = test system: CIMRSA 2; assay: microdilution susceptibility test; type: cell-based, Staphylococcus aureus; conditions: N=3
# [17] = test system: Pseudomonas aeruginosa; conditions: cited from earlier work
# [18] = test system: Bacillus cereus; conditions: cited from earlier work
# [19] = test system: eight MRSA strains; assay: antibacterial activity against eight MRSA strains; type: cell-based, Staphylococcus aureus; conditions: 6 compared with 2
# [20] = CTG Luminescent Cell Viability Assay; type: cell-based, monkey; conditions: monkey, Vero cells
# Sequence of S. aureus DNA gyrase (P20831 whole entry): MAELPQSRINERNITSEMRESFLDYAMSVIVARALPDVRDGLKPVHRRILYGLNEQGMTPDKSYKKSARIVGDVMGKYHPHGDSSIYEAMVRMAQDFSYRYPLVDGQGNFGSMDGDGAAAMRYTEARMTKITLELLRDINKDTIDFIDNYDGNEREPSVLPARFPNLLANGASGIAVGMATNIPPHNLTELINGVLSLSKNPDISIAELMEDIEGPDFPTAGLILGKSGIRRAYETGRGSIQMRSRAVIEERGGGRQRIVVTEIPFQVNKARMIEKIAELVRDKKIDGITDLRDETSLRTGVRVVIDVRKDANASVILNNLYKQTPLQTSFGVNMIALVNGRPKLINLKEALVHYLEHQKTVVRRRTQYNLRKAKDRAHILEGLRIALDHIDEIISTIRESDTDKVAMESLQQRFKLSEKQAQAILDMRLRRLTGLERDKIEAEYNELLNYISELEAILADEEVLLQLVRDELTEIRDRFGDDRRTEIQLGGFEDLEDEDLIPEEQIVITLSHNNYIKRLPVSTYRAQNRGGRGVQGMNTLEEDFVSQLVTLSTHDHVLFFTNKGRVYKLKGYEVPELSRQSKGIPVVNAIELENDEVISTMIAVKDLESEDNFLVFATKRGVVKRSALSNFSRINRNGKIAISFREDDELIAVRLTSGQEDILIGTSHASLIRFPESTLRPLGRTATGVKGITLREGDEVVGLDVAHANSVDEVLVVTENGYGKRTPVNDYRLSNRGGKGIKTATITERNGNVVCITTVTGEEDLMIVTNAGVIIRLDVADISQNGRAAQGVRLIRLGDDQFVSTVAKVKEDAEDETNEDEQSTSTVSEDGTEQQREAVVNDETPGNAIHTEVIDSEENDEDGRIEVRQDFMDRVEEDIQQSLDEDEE
# Sequence of S. aureus DNA gyrase (P0A0K8 whole entry): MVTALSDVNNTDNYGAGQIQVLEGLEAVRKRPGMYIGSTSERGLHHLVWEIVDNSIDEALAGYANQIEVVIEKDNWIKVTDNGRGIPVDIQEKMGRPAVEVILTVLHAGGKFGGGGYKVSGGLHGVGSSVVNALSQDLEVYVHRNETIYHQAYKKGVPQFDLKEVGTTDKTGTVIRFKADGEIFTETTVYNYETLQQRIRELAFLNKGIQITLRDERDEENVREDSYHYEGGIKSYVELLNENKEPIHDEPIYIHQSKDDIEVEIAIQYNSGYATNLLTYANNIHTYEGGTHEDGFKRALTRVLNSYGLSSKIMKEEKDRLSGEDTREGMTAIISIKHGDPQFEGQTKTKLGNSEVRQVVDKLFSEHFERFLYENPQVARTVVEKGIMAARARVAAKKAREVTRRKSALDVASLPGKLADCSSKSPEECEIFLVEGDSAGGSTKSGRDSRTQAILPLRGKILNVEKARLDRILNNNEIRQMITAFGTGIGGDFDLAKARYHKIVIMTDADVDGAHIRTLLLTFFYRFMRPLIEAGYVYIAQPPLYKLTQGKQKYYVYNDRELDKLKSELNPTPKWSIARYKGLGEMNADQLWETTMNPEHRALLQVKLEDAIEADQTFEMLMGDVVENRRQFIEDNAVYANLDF
molecule,measurement,setting,value
"CCCCCCCCCCCCCCCC(=O)Oc1ccc(/C=C/C(=O)/C=C/c2ccc(OC(=O)CCCCCCCCCCCCCCC)c(OC)c2)cc1OC [C5-Curc-PA, C5-Curcumin-Palmitic Acid]",inhibition of S. aureus DNA gyrase (in words),"[1]; ethidium bromide stained gels, Fig. 2",not inhibitory
2-hexadecynoic acid [compound 4],PBMC cytotoxicity IC50±SEM,[2],68.9 ± 0.7 µg/mL
same,MIC,[3],7.8 µg/mL
same,IC50 ± SEM,[4],4.2 ± 0.1 µg/mL
same,MIC,[4],7.8 µg/mL
same,Vero cells cytotoxicity IC50±SEM,[5],1.6 ± 0.4 µg/mL
same,MIC,[6],15.6 µg/mL
same,IC50 ± SEM,[7],5.7 ± 0.8 µg/mL
same,MIC,[7],7.8 µg/mL
same,MIC,[8],3.9 µg/mL
same,IC50 ± SEM,[9],4.7 ± 0.3 µg/mL
same,MIC,[9],7.8 µg/mL
same,IC50 ± SEM,[10],6.5 ± 0.1 µg/mL
same,MIC,[10],15.6 µg/mL
same,MIC,[11],">1,000 μg/mL"
same,IC50 ± SEM,[12],5.1 ± 0.1 µg/mL
same,MIC,[12],7.8 µg/mL
same,IC50 ± SEM,[13],6.3 ± 0.2 µg/mL
same,MIC,[13],15.6 µg/mL
same,MIC,[14],15.6 µg/mL
same,IC50 ± SEM,[15],5.1 ± 0.2 µg/mL
same,MIC,[15],7.8 µg/mL
same,IC50 ± SEM,[16],5.0 ± 0.5 µg/mL
same,MIC,[16],7.8 µg/mL
same,MIC,[17],125 µg/mL
same,fold more active against DNA gyrase than 6,[1]; 4 compared with 6,3.7 fold
same,MIC,[18],31.3 µg/mL
"CCCCCCCCCCCCCC#CC(=O)Oc1ccc(/C=C/C(=O)/C=C/c2ccc(OC(=O)C#CCCCCCCCCCCCCC)c(OC)c2)cc1OC [compound 6, C5-Curcumin-2-Hexadecynoic Acid]",fold increase of antibacterial activity against MRSA strains relative to 2,[19],4-8 fold
same,IC50,[20],> 100 µg/mL
